Reference: patent US10172825B2, “Pharmacological treatment of cognitive impairment” (priority 2006, dated 2019)
“Also recorded” adds a separate entry of the source. Read-outs that look alike come from different tables or passages of the source.

Key:
[1] = tested on: Ts65Dn mice; assay: Two-object based object recognition task; assay type: in vivo, mouse; details: for Object recognition memory, summary statement: chronic administration; for Persistence of cognitive improvement after drug treatment, summary statement: after cessation of chronic treatment
Text: The object recognition task, a behavioral assay not requiring explicit rule learning or prolonged training, is based on the innate tendency of mice to differentially explore novel objects over familiar ones. Animals are submitted to daily handling sessions and are given an opportunity to habituate to a black acrylic, boxed enclosure, where they are exposed to two different objects during a 15-min training session. […] All are generally consistent in height and volume, and are symmetrical on a horizontal plane. They are set in two corners of the apparatus, positioned across from one another along its diameter. Subsequently, a 15-min. testing session is conducted 24 h after training. Here, the mice are presented with the object they had explored the previous day, and a new item (the objects being alternatively positioned in one corner or another in a balanced fashion).
Memory is operationally defined as the proportion of time animals spend investigating the novel object minus the proportion spent investigating the familiar one (Discrimination Index, DI=[Novel Object Exploration Time/Total Exploration Time−Familiar Object Exploration Time/Total Exploration Time]×100), where exploration constitutes any investigative behavior (i.e., head orientation, sniffing) or deliberate contact (i.e. rearing, licking) that occurs with each object. Behavioral trials are recorded by a tripod-mounted digital camera. Importantly, the object recognition task can be used repeatedly to evaluate rodent memory across time, and across various drug treatment regiments. Mice are trained and tested once per week, each experimental session separated by a 1-week interval, and are serially presented with new sets of objects. In this scheme, each mouse is considered a naïve subject, and each week's performance is considered an independent observation. Finally, all behavioral data are analyzed by Student's unpaired t tests.
Moreover, learning performance in the test is not confounded by task aversiveness, a variable common in avoidance paradigms, in food-motivated tasks, and in the Morris water maze (MWM). […] Thus, object recognition is an appropriate rodent cognitive task to assess Ts65Dn learning and memory deficits, and the mitigation of these deficits with pharmacological treatment.
The present experiment was carried out in a longitudinal, cross-over fashion, submitting four cohorts of WT and Ts65Dn experiment al pairs to a 4-week testing schedule. […] Note that untreated WT and Ts65Dn pairs had been previously run in order to validate the 2-object recognition test. […] N values reflect the number of observations (repetitions) per treatment. DI values are expressed as mean±SEM.
The animals were randomly assigned to groups receiving daily servings of chocolate milk or Metrazol (3 mg/kg), and were submitted to two repetitions of object recognition testing. For the purposes of drug delivery, all mice were conditioned to drinking chocolate milk in their home cages and then in cylindrical feeding tubes for 4 days. Subsequent to this conditioning, they were placed daily into the feeding tubes, and presented with small eppendorf caps of milk or a milk-Metrazol cocktail. The milk solutions were typically consumed within 10 min, after which the mice were returned to their home cages. In the current experiment, two cohorts of WT and Ts65Dn mice were submitted to a twoweek testing schedule. […] N values reflect the number of observations (repetitions) per treatment. DI values are expressed as mean±SEM.

[2] = tested on: hippocampal population spikes; details: cited from earlier work
[3] = humans, oral intake of a 80-120 mg dose of ginkgo biloba leaf extract; cited from earlier work
[4] = barbital-induced narcosis; cited from earlier work
[5] = tested on: rats; details: chronic subcutaneous, approximately 10.0 mg/kg, ~9 months; cited from earlier work
[6] = tested on: rats and mice; details: acute post-training, peripheral injection or oral intake; cited from earlier work
[7] = cited from earlier work
[8] = cited from earlier work; remark: listed apart in the source
[9] = tested on: Ts65Dn mice; assay: Hippocampal LTP after chronic drug administration; assay type: in vivo, mouse; details: after chronic once a day administration
Text: It is shown that chronic (but not acute) once a day drug administration in Ts65Dn mice was able to normalize cognitive performance in the novel object recognition and spontaneous alteration tasks, and to rescue hippocampal LTP (see also Fernandez et al. (2007) Nat. Neurosci. 10, 411-413, herein specifically incorporated by reference).

[10] = tested on: Ts65Dn mice; assay: Spontaneous holeboard task; assay type: in vivo, mouse
Text: One cohort of WT and Ts65Dn mice, used to determine the effects of chronic Metrazol on Ts65Dn object recognition performance, were submitted to a spontaneous holeboard task approximately 1 month after the end of Metrazol treatment and object recognition testing. Here, milk- and drug-treated animals (now 5.0 months of age) were habituated to Med Associates open field activity monitors (27.9 cm×27.9 cm) (FIGS. 7b and 7c), and then evaluated for holeboard exploration during a 7-min session. Please note that 2 rounds of holeboard testing were conducted during the light phase of the light/dark cycle, and were separated by a 1-week interval. […] N values reflect the number of observations (repetitions) per treatment. Values are expressed as mean±SEM.

[11] = tested on: Ts65Dn hippocampal LTP; details: application of picrotoxin in vitro (Kleschevnikov 2004); cited from earlier work
[12] = tested on: Ts65Dn mice; assay: Accelerating rotorod test (motor learning); assay type: in vivo, mouse; details: chronic PTX treatment (FIG. 12)
[13] = tested on: rats; details: dose selective for α5-containing GABAA receptors; cited from earlier work
[14] = tested on: rats; details: cited from earlier work
[15] = tested on: children with Down Syndrome; details: children with Down Syndrome (Cocchi 1985); cited from earlier work

CC(C)(C)[C@]1(O)C[C@@H]2OC(=O)C[C@@]23C(=O)O[C@@H]2OC(=O)[C@H](O)[C@]213 [bilobalide, Bilobalide]
Discrimination Index (DI), object recognition memory ([1]; Ts65Dn mice, 30 daily i.p. injections through the 4-week testing schedule): resembled Ts65Dn mice receiving PTX | Object recognition memory, summary statement ([1]; Ts65Dn mice): restore Ts65Dn object recognition performance | Paired pulse inhibition [2]: decrease paired pulse inhibition | Amplitude of hippocampal population spikes ([2]; muscimol-dependent manner): significantly increase the amplitude of hippocampal population spikes | Bioavailability [3]: 70% | Half-life [3]: 3 h | Sleeping time [4]: shorten sleeping time

C1CCc2nnnn2CC1 [Metrazol, pentamethylenetetrazol]
Reversal learning in a shock-motivated, spatial maze task [5]: elevates reversal learning | Signs of neuronal aging in the hippocampus [5]: curtails signs of neuronal aging in the hippocampus | Persistence of cognitive improvement after drug treatment, summary statement ([1]; Ts65Dn mice): found to have longevity in its effects for weeks after treatment | Persistence of cognitive improvement after drug treatment, summary statement ([1]; Ts65Dn mice, listed as PTZ): persistent, post-drug recovery of Ts65Dn cognition | Object recognition memory, summary statement ([1]; Ts65Dn mice): restore Ts65Dn object recognition performance | Discrimination Index (DI), object recognition memory ([1]; Ts65Dn mice, daily oral Metrazol 3 mg/kg in milk, compared with Ts65Dn mice given milk alone (p<0.03)): significantly higher than Ts65Dn mice administered milk alone | Discrimination Index (DI), object recognition memory ([1]; Ts65Dn mice, daily oral Metrazol 3 mg/kg in milk, two weeks, compared with WT mice given milk (p<0.16) or Metrazol (p<0.47)): DI scores on par with those of WT mice given milk | Learning and memory [6]: facilitate normal learning and memory in rats and mice | Adverse or toxic effects ([7]; humans, dose range of less than about 100-400 mg/day): little to no adverse or toxic effects | Electrocardiographic tracings ([7]; patients on Metrazol): no abnormalities in their electrocardiographic tracings | Temperature curves, respiration, blood sugar, icteric index, pulse rate ([7]; patients on Metrazol): no changes in temperature curves, respiration, blood sugar, icteric index or pulse rate | Distribution between brain regions ([8]; after intraperitoneal injection, cerebellum, midbrain, cortex): allocated evenly between the 3 major brain divisions | Time to maximum physiological levels ([8]; after oral intake or systemic injection): 5-10 min | Blood-brain barrier passage ([8]; in vivo): readily crosses the blood-brain barrier | Half-life ([8]; in vivo): 1 to 2 h | Volume of distribution ([8]; in vivo): approximates the volume of total body water | Post-drug recovery of hippocampal LTP [9]: post-drug recovery of Ts65Dn cognition and LTP lasting for several months | Holeboard exploration efficiency (head-dips into previously explored holes) ([10]; Ts65Dn mice about 1 month after end of Metrazol treatment, compared with WT-milk (p>0.07) and WT-Metrazol (p<0.31)): showed similar exploration efficiency | Holeboard exploration efficiency, summary statement ([10]; Ts65Dn mice after GABA antagonist treatment with Metrazol): rescued and persevere in Ts65Dn mice

Picrotoxin [PTX]
Deficits in Ts65Dn hippocampal LTP [11]: shown to reverse | Rotorod performance / motor learning [12]: does not influence Ts65Dn motor learning; also recorded: does not influence Ts65Dn Rotorod Performance | Time normal object recognition memory is maintained post-treatment ([1]; PTX-treated Ts65Dn mice after cessation of chronic treatment): at least 2 weeks | Object recognition performance ([1]; Ts65Dn mice, acute PTX (FIG. 11)): Unable to Reliably Rescue Ts65Dn Performance | Persistence of cognitive improvement after drug treatment, summary statement ([1]; Ts65Dn mice): maintained post drug treatment | Object recognition memory, summary statement ([1]; Ts65Dn mice): able to recover Ts65Dn declarative memory | Object recognition memory, summary statement ([1]; Ts65Dn mice, listed as Picrotoxin): normalizes object recognition memory in Ts65Dn mice | Object recognition memory, summary statement ([1]; Ts65Dn mice, listed as picrotoxin): normalizes learning of Ts65Dn mice in an object recognition task

CC1C(=O)OC2C(O)C34C5CC(C(C)(C)C)C36C(OC(=O)C6O)OC4(C(=O)O5)C12O (stereo not drawn) [Ginkgolide B, ginkgolide B]
Bioavailability [3]: at least 80% | Half-life [3]: 6 h

CCOC(=O)c1ncn2c1[C@@H]1CCCN1C(=O)c1cc(OC)ccc1-2 [L-655,708]
Pro-convulsant effect [13]: not pro-convulsant | Cognition [14]: enhance cognition in rats

CN1C(=O)CN=C(c2ccccc2)c2cc(Cl)ccc21 [diazepam]
Depression [15]: reducing depression
